Source: patent US8735384B2, “Amino heteroaryl compounds as beta-secretase modulators and methods of use” (Amgen Inc., priority 2010, dated 2014)

Assays:
BACE1 = BACE1 (Homo sapiens, UniProt P56817); assay: In vitro enzymatic BACE FRET assay; type: biochemical; settings: beta secretase enzyme 0.2 nM, FRET substrate 50 nM, pH 4.2; read-out: BACE1 FRET assay (IC50 class)
Procedure: In Vitro Enzymatic BACE FRET (Fluorescence Resonance Energy Transfer) Assay (Enzyme Assay Data in Table 1)
The assay buffer used in this screen is 0.05 M acetate, pH 4.2, 10% DMSO final, 100 uM genapol (which is a nonionic detergent, below its Critical Micelle Concentration). The beta secretase enzyme (0.2 nM) is pre-incubated for one hour with inhibitors, typically in about 1 uL of DMSO according to a serial dilution, are added thereto. The assay is effectively started by the addition of FRET substrate (50 nM) and the combination is incubated for one hour. The FRET assay is terminated with by addition of Tris buffer, which raises the pH to neutrality, and the fluorescence is determined. The FRET substrate is a peptide with commercially available fluorophore and quencher, on opposite sides of the BACE cleavage site. Proteolytic cleavage of the FRET substrate releases quenching of fluorescence (excitation […] and […]).
Of the compounds tested, the in-vitro BACE FRET enzyme data for each of Examples 1-220, where available at the time of filing this application, is provided in Table 1.

[1] = tested on: Aβ40 in conditioned medium of cells stably expressing Amyloid Precursor Protein (APP); assay: In vitro BACE cell-based assay (HEK cell assay), Aβ40 sandwich ELISA; settings: Homo sapiens, HEK293, 24 h, inhibition of Aβ40, 24 h incubation, read-out: HEK cell assay (IC50 class)
Procedure: In Vitro BACE Cell-Based Assay:
The cell-based assay measures inhibition or reduction of Aβ40 in conditioned medium of test compound treated cells expressing amyloid precursor protein.
Cells stably expressing Amyloid Precursor Protein (APP) were plated at a density of 40K cells/well in 96 well plates (Costar). The cells were cultivated for 24 hours at 37° C. and 5% CO2 in DMEM supplemented with 10% FBS. The test compounds were then added to cells in 10-point dose response concentrations with the starting concentration being either 100 μM or 10 μM. The compounds were diluted from stock solutions in DMSO and the final DMSO concentration of the test compounds on cells was 0.1%. After 24 h of incubation with the test compounds the supernatant conditioned media was collected and the Aβ 40 levels were determined using a sandwich ELISA. The IC50 of the compound was calculated from the percent of control or percent inhibition of Aβ 40 as a function of the concentration of the test compound.
The sandwich ELISA to detect Aβ 40 was performed in 96 well microtiter plates, which were pre-treated with goat anti-rabbit IgG (Pierce). The capture and detecting antibody pair that were used to detect Aβ 40 from cell supernatants were affinity purified pAb40 (Biosource) and biotinylated 6E10 (Signet Labs Inc.), respectively. The optimal concentration for the pAb40 antibody was 3 μg/ml in Superblock/TBS (Pierce) that was supplemented with 0.05% Tween 20 (Sigma). Optimal concentration for the detection antibody 6E10-biotinylated was 0.5 μg/ml in Superblock/TBS (Pierce) that had been supplemented with 2% normal goat serum and 2% normal mouse serum.
Cellular supernatants were incubated with the capture antibody for 3 h at 4° C., followed by 3 wash steps in TBS-tween (0.05%). The detecting antibody incubation was for 2 h at 4° C., again followed by the wash steps as described previously. The final readout of the ELISA is Time-Resolved Fluorescence (counts per minute) using Delfia reagents Streptavidin-Europium and Enhancement solutions (Perkin Elmer) and the Victor 2 multilabel counter (Perkin Elmer).

Sequence of BACE1 (P56817 46-501, species assumed): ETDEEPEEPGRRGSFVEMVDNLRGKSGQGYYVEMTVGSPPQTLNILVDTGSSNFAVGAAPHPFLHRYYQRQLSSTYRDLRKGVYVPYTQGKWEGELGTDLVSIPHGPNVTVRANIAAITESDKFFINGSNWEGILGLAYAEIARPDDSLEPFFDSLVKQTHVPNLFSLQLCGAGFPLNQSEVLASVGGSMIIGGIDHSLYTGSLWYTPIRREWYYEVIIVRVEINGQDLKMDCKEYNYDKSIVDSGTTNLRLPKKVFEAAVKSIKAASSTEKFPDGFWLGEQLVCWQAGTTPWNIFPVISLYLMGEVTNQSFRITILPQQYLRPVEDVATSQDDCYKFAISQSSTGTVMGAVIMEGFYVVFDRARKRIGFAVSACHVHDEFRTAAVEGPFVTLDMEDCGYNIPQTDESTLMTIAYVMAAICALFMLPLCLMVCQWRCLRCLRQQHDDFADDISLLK

| SMILES | IC50 (BACE1) [nM] | IC50 [1] [nM] |
| --- | --- | --- |
| CCN(CC)C(=O)c1cccc(C)c1-c1ccc2nc(N)c(N3CCOCC3)cc2c1 [Example 102, 2-(2-amino-3-morpholinoquinolin-6-yl)-N,N-diethyl-3-methylbenzamide] | 100 to 500 | 1010 to 5000 |
| Cc1cccc(OCC(C)(C)C)c1-c1ccc2nc(N)c(N3CCOCC3)cc2c1 [Example 52, 6-(2-methyl-6-(neopentyloxy)phenyl)-3-morpholinoquinolin-2-amine] | < 100 | > 5000 |
| Cc1cccc(C(=O)N2CCC(F)CC2)c1-c1ccc2nc(N)c(N3CCOCC3)cc2c1 [Example 95, (2-(2-amino-3-morpholinoquinolin-6-yl)-3-methylphenyl)(4-fluoropiperidin-1-yl)methanone] | < 100 | 1010 to 5000 |
| Cc1cccc(C(=O)c2ccncn2)c1-c1ccc2nc(N)c(N3CCOCC3)cc2c1 [Example 23, (2-(2-amino-3-morpholinoquinolin-6-yl)-3-methylphenyl)(pyrimidin-4-yl)methanone] | 100 to 500 | > 5000 |
| Cc1cccc(C(=O)N(C)c2ccccc2)c1-c1ccc2nc(N)c(N3CCOCC3)cc2c1 [Example 126, 2-(2-amino-3-morpholinoquinolin-6-yl)-N,3-dimethyl-N-phenylbenzamide] | 100 to 500 | 1010 to 5000 |
| Cc1cccc(C(=O)n2ccc3ccccc32)c1-c1ccc2nc(N)c(N3CCOCC3)cc2c1 [Example 26, (2-(2-amino-3-morpholinoquinolin-6-yl)-3-methylphenyl)(1H-indol-1-yl)methanone] | 100 to 500 | > 5000 |
| Cc1cccc(C(=O)N2CCC2)c1-c1ccc2nc(N)c(N3CCOCC3)cc2c1 [Example 103, (2-(2-amino-3-morpholinoquinolin-6-yl)-3-methylphenyl)(azetidin-1-yl)methanone] | 100 to 500 | 501 to 1000 |
| CCCCN(C)C(=O)c1cccc(C)c1-c1ccc2nc(N)c(N3CCOCC3)cc2c1 [Example 117, 2-(2-amino-3-morpholinoquinolin-6-yl)-N-butyl-N,3-dimethylbenzamide] | < 100 | 1010 to 5000 |
| COC1CCN(C(=O)c2cccc(C)c2-c2ccc3nc(N)c(N4CCOCC4)cc3c2)CC1 [Example 72, (2-(2-amino-3-morpholinoquinolin-6-yl)-3-methylphenyl)(4-methoxypiperidin-1-yl)methanone] | < 100 | 1010 to 5000 |
| Cc1cccc(Nc2ccccc2)c1-c1ccc2nc(N)c(N3CCOCC3)cc2c1 [Example 55, 6-(2-methyl-6-(phenylamino)phenyl)-3-morpholinoquinolin-2-amine] | 100 to 500 | > 5000 |
| Cc1cccc(C(=O)Nc2ccccc2)c1-c1ccc2nc(N)c(N3CCOCC3)cc2c1 [Example 127, 2-(2-amino-3-morpholinoquinolin-6-yl)-3-methyl-N-phenylbenzamide] | 1010 to 5000 | > 5000 |
| CCCC1CCN(C(=O)c2cccc(C)c2-c2ccc3nc(N)c(N4CCOCC4)cc3c2)CC1 [Example 78, (2-(2-amino-3-morpholinoquinolin-6-yl)-3-methylphenyl)(4-propylpiperidin-1-yl)methanone] | < 100 | > 5000 |
| Cc1cccc(C(=O)N2C(C)CCCC2C)c1-c1ccc2nc(N)c(N3CCOCC3)cc2c1 (stereo not shown) [Example 124, (2-(2-amino-3-morpholinoquinolin-6-yl)-3-methylphenyl)(2,6-dimethylpiperidin-1-yl)methanone] | < 100 | 1010 to 5000 |
| CC(C)(C)CCc1cccc(C(=O)N2CCCC2)c1-c1ccc2nc(N)c(N3CCOCC3)cc2c1 [Example 45, (2-(2-amino-3-morpholinoquinolin-6-yl)-3-(3,3-dimethylbutyl)phenyl)(pyrrolidin-1-yl)methanone] | < 100 | < 100 |
| Cc1cccc(C(=O)N(C)C2CCCCC2)c1-c1ccc2nc(N)c(N3CCOCC3)cc2c1 [Example 112, 2-(2-amino-3-morpholinoquinolin-6-yl)-N-cyclohexyl-N,3-dimethylbenzamide] | < 100 | 1010 to 5000 |
| CCOC(=O)c1cccc(C)c1-c1ccc2nc(N)c(N3CCOCC3)cc2c1 [Example 62, ethyl 2-(2-amino-3-morpholinoquinolin-6-yl)-3-methylbenzoate] | 100 to 500 | 1010 to 5000 |
| Cc1cccc(C#CC(C)(C)C)c1-c1ccc2nc(N)c(N3CCOCC3)cc2c1 [Example 40, 6-(2-(3,3-dimethylbut-1-ynyl)-6-methylphenyl)-3-morpholinoquinolin-2-amine] | < 100 | 1010 to 5000 |

Continued, values first:

| IC50 (BACE1) [nM] | IC50 [1] [nM] | SMILES |
| --- | --- | --- |
| < 100 | 501 to 1000 | Cc1cccc(C(=O)c2ncccc2Cl)c1-c1ccc2nc(N)c(N3CCOCC3)cc2c1 [Example 159, (2-(2-amino-3-morpholinoquinolin-6-yl)-3-methylphenyl)(3-chloropyridin-2-yl)methanone] |
| < 100 | 1010 to 5000 | Cc1cccc(C(=O)Cc2ccccc2)c1-c1ccc2nc(N)c(N3CCOCC3)cc2c1 [Example 185, 1-(2-(2-amino-3-morpholinoquinolin-6-yl)-3-methylphenyl)-2-phenylethanone] |
| < 100 | 100 to 500 | Cc1cc(F)cc(C(=O)N2CC[C@@H](F)C2)c1-c1ccc2nc(N)c(N3CCOCC3)cc2c1 [Example 130, (R)-(2-(2-amino-3-morpholinoquinolin-6-yl)-5-fluoro-3-methylphenyl)(3-fluoropyrrolidin-1-yl)methanone] |
| < 100 | 501 to 1000 | Nc1nc2ccc(-c3cc(Cl)ccc3C(=O)N3CCCC3)cc2cc1N1CCOCC1 [Example 154, (2-(2-amino-3-morpholinoquinolin-6-yl)-4-chlorophenyl)(pyrrolidin-1-yl)methanone] |
| < 100 | 100 to 500 | Cc1ccc(C(=O)N2CCCC2)c(-c2ccc3nc(N)c(N4CCOCC4)cc3c2)c1 [Example 150, (2-(2-amino-3-morpholinoquinolin-6-yl)-4-methylphenyl)(pyrrolidin-1-yl)methanone] |
| < 100 | 1010 to 5000 | Cc1cccc(OCCOC(C)C)c1-c1ccc2nc(N)c(N3CCOCC3)cc2c1 [Example 170, 6-(2-(2-isopropoxyethoxy)-6-methylphenyl)-3-morpholinoquinolin-2-amine] |
| < 100 | 501 to 1000 | COc1ccc(N(C)C(=O)c2cccc(C)c2-c2ccc3nc(N)c(N4CCOCC4)cc3c2)cc1 [Example 132, 2-(2-amino-3-morpholinoquinolin-6-yl)-N-(4-methoxyphenyl)-N,3-dimethylbenzamide] |
| < 100 | 501 to 1000 | Cc1cccc(C(=O)N2CCCC2)c1-c1ccc2nc(N)c(N3CCOC(C)(C)C3)cc2c1 [Example 215, (2-(2-amino-3-(2,2-dimethylmorpholino)quinolin-6-yl)-3-methylphenyl)(pyrrolidin-1-yl)methanone] |
| < 100 | < 100 | COc1ccccc1C(=O)c1cccc(C)c1-c1ccc2nc(N)c(C3CCOCC3)cc2c1 [Example 212, (2-(2-amino-3-(tetrahydro-2H-pyran-4-yl)quinolin-6-yl)-3-methylphenyl)(2-methoxyphenyl)methanone] |
| 100 to 500 | < 100 | COc1cccnc1C(N)c1cccc(C)c1-c1ccc2nc(N)c(N3CCOCC3)cc2c1 (stereo not shown) [Example 198, 6-(2-(amino(3-methoxypyridin-2-yl)methyl)-6-methylphenyl)-3-morpholinoquinolin-2-amine] |
| 100 to 500 | 1010 to 5000 | Nc1nc2ccc(-c3c(Cl)cccc3C(=O)N3CCOCC3)cc2cc1N1CCOCC1 [Example 144, (2-(2-amino-3-morpholinoquinolin-6-yl)-3-chlorophenyl)(morpholino)methanone] |
| < 100 | 1010 to 5000 | Cc1cccc(Cc2ccc(F)cc2)c1-c1ccc2nc(N)c(N3CCOCC3)cc2c1 [Example 201, 6-(2-(4-fluorobenzyl)-6-methylphenyl)-3-morpholinoquinolin-2-amine] |
